Laboratory results reported in US10292991B2, “Small molecule therapeutic compounds that reduce the incidence of intracerebral hemorrhage and brain microhemorrhages” (St. Michaels Hospital, priority 2016, dated 2019).
Where two headings read alike, the source gives them in different places.

How the values were obtained:
[1] = tested on: bbh mutant zebrafish (mutation in βPix), spontaneous ICH; experiment: bbh (bubblehead) mutant genetic model of brain hemorrhage; format: in vivo, zebrafish (Danio rerio); conditions: Danio rerio, read-out: EC50 to rescue brain hemorrhage, bbh Mutant Model
Excerpt: A specific zebrafish line with a gene mutation called bubblehead (bbh) was used. This line has spontaneous ICH. Bubblehead phenotype is caused by a mutation in βPix. Adult homozygous zebrafish were viable and fertile. […] More than 85% of zebrafish larvae display an ICH phenotype.

[2] = tested on: LPS-induced brain microbleeds in mice; experiment: LPS-induced microbleeding mouse model; format: in vivo, C57BL/6 mice
Excerpt: An LPS-mediated micro bleeding model was created similar to that described in Lui et al (Liu S, Grigoryan M M, Vasilevko V et al. Comparative analysis of H&E and Prussian blue staining in a mouse model of cerebral microbleeds. J Histochem Cytochem 2014; 62:767-773). 9-10 week old C57BL/6 mice of both sexes were purchased from Charles River, and randomly assigned to control or treatment groups in equal numbers. LPS from Salmonella enterica (Sigma Aldrich, St Louis, Mo.) was reconstituted with PBS to a final concentration of 5 mg/ml. Both control (n=16) and drug treatment (n=16) groups received injections of 5 mg/kg LPS at times 0 and 24 hrs. The drug treatment group, further divided into high dose (n=4) and low dose (n=12), received intraperitoneal injections of artemether (ARM) (25 mg/kg for Low dose and 100 mg/kg for High dose) at time points −72, −48, −24, 0 and 24 hrs of LPS treatment. All mice were sacrificed at 48 hrs after the first LPS injection.
LPS-induced microbleeding model: All mice in the LPS study were deeply anesthetized with ketamine and xylazine and perfused through the left cardiac ventricle with NaCl, 0.9%, followed by 4% paraformaldehyde (PFA) in 1×PBS buffer and 2 mM Gadoteridol contrast agent for 24 hours. Each brain was transferred into a 1×PBS+0.02% sodium azide and 2 mM Gadoteridol contrast agent. Brains were kept in this immersion solution for 14 days before imaging to ensure proper contrast diffusion in the brain for magnetic resonance imaging (MRI) scan. […]
For the integrin ICH model, brains were taken out of the skull, cut at the mid-coronal position and assessed in a binary manner for whether or not there was any evidence of ICH. […]
Brains were scanned using 7T Burker MRI with 16-channel solenoid coils. […] Following the reconstruction of images and applying image distortion correction algorithms, all brains were processed and analyzed for total volume of brain and total volume of hemorrhage. Quantification was done using percentage of bleeding (normalized to each brain size). […] Lastly, quantification was done in a blinded fashion. […]

zebrafish larvae = experiment: Toxicity assay in zebrafish larvae (heart beat, blood flow, cardiac edema); format: in vivo, zebrafish (Danio rerio)
Protocol: The embryos were collected and distributed into a 96-well plate in 0.5% DMSO, similar to efficacy assays. […] Heart beat and blood flow were ranked from 3 (normal heart beat or blood flow) to 0 (no heart beat or blood flow). Cardiac edema was ranked from 0 (normal heart without edema) to −3 (severe cardiac edema). […] The ratio of TC50/EC50 was calculated in each case.
Heart beat and blood flow were ranked from 3 (normal heart beat or blood flow) to 0 (no heart beat or blood flow). Cardiac edema was ranked from 0 (normal heart without edema) to −3 (severe cardiac edema). […] Data is expressed as mean±SEM from 3 experiments.

[3] = Spectrophotometer analysis of blood hemoglobin concentration (Drabkin's method); format: in vivo, C57BL/6 mice; conditions: 25 mg/kg or 100 mg/kg for 3 days, n=4; no statistical difference between groups
Protocol: Drabkin's reagent (Sigma Aldrich) was used for calorimetric quantification of hemoglobin concentration at 540 nm. C57BL/6 mice were randomly assigned to three groups (each n=4): Control, Low-dose ARM, and High-dose ARM. For ARM groups, three days of 25 mg/kg/day and 100 mg/kg/day ARM were administered for low and high dose, respectively. Blood from saphenous vein were collected at day 4 and tested for hemoglobin concentration using UV 3600 Shimadzu spectrophotometer. A standard curve was generated using a known standard solution of cyanmethemoglobin, and blood concentrations of Hb was compared to the standard curve.
To assess possible anemia effect from ARM treatment as some previous studies speculated, blood samples were tested for hemoglobin concentration after ARM treatment. Blood hemoglobin concentration was assessed using Drabkins' method. Spectrophotometer data was compared to a standard curve from standard cyanmethemoglobin concentrations. The control group received no drug. The Treatment Dose group received 3 days injection of low dose ARM (25 mg/kg), 4× Treatment Dose group received 3 days injection of high dose ARM (100 mg/kg).

[4] = tested on: brain hemorrhage induced by 1 μM atorvastatin in zebrafish; experiment: Atorvastatin-induced brain hemorrhage (ICH) model in zebrafish, rescue by drugs; conditions: for EC50: Danio rerio
Protocol: Zebrafish were set up the night before the experiment day. In the morning of the experimental day, we put breeders together for mating and fertilization. 6 hours post-fertilization (hpf), statins was added into a 96-well plate holding 100 μl water with 7 to 8 fish eggs in each well, which was optimized through a serial pilot experiments. Statins were dissolved in DMSO and diluted with 0.5% of DMSO water into a working solution. 100 μl water containing 0.5% of DMSO was the medium for all wells in the final assessment.
For screening NIH compound libraries, 5 μM of each of the drugs from the library was added at 24 hpf into wells containing fish eggs treated with 1 μM ATV since 6 hpf. Hemorrhage positive control wells were treated with ATV but not treated with any drugs. Negative controls were not treated with any chemicals (fish with 0.5% of DMSO water). Geranylgeranyl pyrophosphate (GGPP, 4 mg/L) was used as positive rescue control.
Brain hemorrhage was assessed 72 hpf (66 hours after addition of statins) using stereomicroscopy by two observers. Percentage of brain hemorrhage was used as final readout. Compounds showing more than 70% of rescue of the brain hemorrhages in the initial test were re-tested to generate a final list of hits from the library.
All subsequent EC50 assays of positive compounds were performed with protocols established and optimized during the screening.

[5] = drug from Sequoia Research (UK)
[6] = drug from Sigma, 3 dpf larvae, drug added 24 hpf

With `CO[C@H]1O[C@@H]2O[C@@]3(C)CC[C@H]4[C@H](C)CC[C@@H]([C@H]1C)[C@@]24OO3` [Artemether] the EC50 [1] was 37.5 nM, the “Total number of microbleeds inside the brain (H&E slices)” value ([2]; LPS+ARM vs LPS, n=8, P<0.01) was “significantly reduced” and the “Total surface microbleeds (stereomicroscope count)” value ([2]; LPS+ARM vs LPS, n=8, P<0.05) was “robust reduction”. The “Reduction of bleeding (MRI, total microbleed volume normalized to brain volume)” value ([2]; vs model control group, n=8, P<0.05) was “about ⅔”, the “TC50 (Blood flow)” value (zebrafish larvae; [5]) was 746.3 nmol/L and the “TC50/EC50 ratio (Blood flow)” value (zebrafish larvae; [5]) was “(9.2)”. For the same compound, the “TC50/EC50 ratio (Edema)” value (zebrafish larvae; [5]) was “(6.5e+010)”, the “TC50/EC50 ratio (Heart beat)” value (zebrafish larvae; [5]) was “(1.3e+011)” and the “TC50/EC50 ratio (Blood flow)” value (zebrafish larvae; drug from Sigma) was “(39.5)”. The “TC50/EC50 ratio (Edema)” value (zebrafish larvae; drug from Sigma) was “(87.1)”, the “TC50/EC50 ratio (Heart beat)” value (zebrafish larvae; drug from Sigma) was “(94.3)” and the “TC50 (Blood flow)” value (zebrafish larvae; [6]) was 975.3 nmol/L. The “TC50 (Edema)” value (zebrafish larvae; [6]) was 19.564 µM, the “TC50 (Heart beat)” value (zebrafish larvae; [6]) was 2328 nmol/L and the “Safety in zebrafish embryos (EC50 compared with TC50)” value (zebrafish larvae; result in words) was “EC50 is much lower than TC50”. The “Anemia (blood hemoglobin concentration)” value [3] was “did not cause anemia”, the “Hemorrhage in zebrafish treated with 1 μmol/L atorvastatin and drug” value ([4]; 500 nmol/L drug, 3 dpf) was “no hemorrhage was observed” and the “Efficacy on atorvastatin Hemorrhage” value ([4]; ATV model induced by 1 μmol/L atorvastatin, inhibition of hemorrhage) was “+++++ (One + sign represents 20% inhibition on 1 μmol/L ATV or β-Pix MO-induced hemorrhage.)”. The EC50 ([4]; read-out: EC50 (in nmol/L) on atorfvastatin model (μmol/L)) was 64 nmol/L and the EC50 ([4]; read-out: EC50 to rescue brain hemorrhage, Statin Model) was 24.7 nmol/L.
